The subject of data set [1] is micturition reflex of anaesthetised rats. In words: Continuous cystometry: effects of an alpha-2-delta ligand on the micturition reflex of anaesthetised rats. It counts as in vivo, rat. The method, then:
Investigation into the Effects of an Alpha-2-delta Ligand on the Micturition Reflex of Anaesthetised Rats
Four caesarean derived (CD) rats weighing approximately 225 g were anaesthetised using urethane and continuous cystometry performed.
The animals were anaesthetised using urethane (1.2 g/kg, i.p.). Depth of anaesthesia was assessed by the stability of blood pressure and heart rate, and by an absence of hind limb withdrawal in response to paw pinch. Supplementary doses of urethane ([…], i.v.) were given where necessary.
The trachea was intubated to maintain a patent airway, an external jugular vein was cannulated for drug administration, and a common carotid artery was cannulated with a heparinised cannula (20 units/ml heparin in 0.9% w/v saline) for the measurement of arterial blood pressure.
Blood pressure was measured using a pressure transducer and the heart rate (HR) derived electronically on-line from the blood pressure using PoneMah (Linton Pty Ltd UK). Body temperature was monitored with a rectal temperature probe and maintained between 36-38° C. using a homeothermic blanket system (Harvard, UK). Animals were allowed to breathe air spontaneously throughout the duration of the experiment.
The urinary bladder was exposed by a midline abdominal incision. A cannula (c. 0.52 mm internal and 1.2 mm external diameter) was inserted into the bladder dome as a means of infusing the bladder while simultaneously recording intravesical bladder pressure. The bladder was infused with physiological saline (0.9%) at the rate of 0.046 ml/min, to simulate the maximal hourly diuresis rate of the rat (Klevmark B [1974]—Motility of the urinary bladder in cats during filling at physiological rates. I. Intravesical pressure patterns studied by a new method of cystometry. Acta Physiol Scand 90(3): 565-77).
Following the surgical procedure the animals were allowed to stabilise for c. 30 min. After the stabilisation period, cystometry was performed and bladder function (interval between micturition) in response to Gabapentin-HCl (0.3, 1, 3 and 10 mg/kg administered intravenously) was monitored.
Differences between treatment groups were examined using ANOVA.
Gabapentin-HCl (Tocris, UK) was dissolved in saline.

Data set [2] has as its system male spontaneously hypertensive rat (SHR). As to the kind of experiment: Micturition frequency and bladder pressure by telemetry in the male spontaneously hypertensive rat (SHR). It counts as in vivo. The conditions noted are these: 60 mg/kg s/c. The method, then: Effect of an Alpha-2-delta Ligand on Micturition Frequency and Bladder Pressure in the Male Spontaneously Hypertensive Rat (SHR)
Eight (8) male spontaneously hypertensive rats were prepared surgically with Data Sciences International (DSI) telemetry transponders (TL11M2-C50-PXT). Bladder pressure was continuously monitored with the aid of a pressure catheter placed via the dome of the bladder.
Bladder parameters (bladder pressure, voiding pressure and the number of voids) were recorded in response to placebo or treatment with 60 mg/kg Gabapentin administered subcutaneously (s/c).

One may read the melting point as the temperature, or range, at which the solid turns liquid. In the case of `CCCC[C@@H](C)C[C@H](N)CC(=O)O.Cl`, the melting point is 142.5 to 143.3 °C.

`NCC1(CC(=O)O)CCCCC1` [gabapentin, 1-(aminomethyl)-cyclohexylacetic acid]: the micturition interval in data set [1] (10 mg/kg intravenously, control 3.1±0.29 min, P<0.05) is 9.89 ± 2.72 min; in data set [2] (P<0.05, FIG. 2), “significantly decreased”. Besides, the “adverse effects on micturition efficiency, urine retention or bladder contraction upon voiding” value in data set [1] (10 mg/kg, anaesthetised rats) was “did not have any adverse effects”. The bladder capacity improved in data set [1] (anaesthetised rats, intravenous, as a consequence of the longer micturition interval) was found to be 200%. The “interval between voiding events” value in data set [1] (urethane-anaesthetised CD rats, 0.3, 1, 3 and 10 mg/kg intravenously, relative to control periods) is recorded as “significantly extended the interval between voiding events in a dose dependent manner”. For the same compound, in data set [2] (FIG. 2), the bladder capacity result was “increased bladder capacity”. For the same compound, in data set [2] (P<0.05 relative to control periods, FIG. 3), the “average bladder pressure during the filling stages of the micturition cycle” value is given as “significantly decreased”.

As for `CCC[C@@H](C)C[C@H](N)CC(=O)O.Cl`, the melting point is 142.5 to 142.7 °C.

(Values after US20040180958A1, “Method of treatment” (priority 2002, published 2004).)
